Experimental data reported in patent publication US20110065754A1 (priority 2009, published 2011).

Experiments:
Ebola Zaire Virus = assay type: cell-based, Ebola virus (strain Zaire)
Marburg Ci67 = assay type: cell-based, Marburg virus
[1] = mouse, in vivo
Ebola Zaire = tested on: Ebola Zaire; set-up: species or system C57Bl/6 mice; details: mouse, in vivo
Marburg Ravn = tested on: Marburg Ravn; set-up: species or system Balb/c mice; details: mouse, in vivo
[2] = mouse
[3] = tested on: Ebola virus (strain Zaire); set-up: species or system Balb/c mice; details: mouse, in vivo

SMILES	IC50 (Ebola Zaire Virus) [µM]	IC50 (Marburg Ci67) [µM]	weight loss compared to vehicle only control [1]	reversibility of symptoms after end of treatment [1]	weight loss [1]	protection against Ebola virus (survival) (Ebola Zaire)	protection against Marburg virus (survival) (Marburg Ravn)	weight loss or adverse effects in vivo [2]	survival rate [3] [%]
CCCOCCCCCCN1C[C@H](O)[C@@H](O)[C@H](O)[C@H]1CO [Compound N7-O-DNJ, N-(7-Oxadecyl)deoxynojirimycin]	20	50							
COCCCCCCCCCN1C[C@H](O)[C@@H](O)[C@H](O)[C@H]1CO [Compound N9-DNJ, N-(9-Methoxynonyl) deoxynojirimycin]	16	32	did not show any significant signs of weight loss						
[N-]=[N+]=Nc1ccc(NCCCCCCN2C[C@H](O)[C@@H](O)[C@H](O)[C@H]2CO)c([N+](=O)[O-])c1 [NAP-DNJ, N—(N-{4′-azido-2′-nitrophenyl}-6-aminohexyl)deoxynojirimycin]	6	6	did not show any significant signs of weight loss	symptoms promptly ceased when treatment was done	did not show signs of weight loss	significant protection	protection	no weight loss or adverse effects observed	71
CCCCN1C[C@H](O)[C@@H](O)[C@H](O)[C@H]1CO [NB-DNJ, N-Butyl deoxynojirimycin]	32		did not show any significant signs of weight loss						
CCCCCCCCCN1C[C@H](O)[C@@H](O)[C@H](O)[C@H]1CO [NN-DNJ, N-Nonyl deoxynojirimycin]	12								
